Some test systems named below: DLD-1 colon; DMS 114 small cell lung; KM20L2 colon; SNB-78 CNS; XF 498 CNS.
Common to all, as to experiment: NCI anticancer screen, dose series, 48 h

SMILES strings stand for the structures.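 Following 48 hours of exposure in 96-well plates, responses at five concentrations were used to interpolate endpoints linearly. At the TGI there is no net growth.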

As to `CCN(CC)c1ccc(N=Nc2ccc(-c3nc4cccnc4o3)cc2)cc1`, the TGI in the assay on DLD-1 colon, with DMS 114 small cell lung, in the assay on KM20L2 colon, in the assay with SNB-78 CNS and with XF 498 CNS was > 100 µM throughout.
Take `CC(=O)NC(CCCCNC(=O)OCc1ccccc1)C(=O)NCc1ccccc1` (stereo not given): the TGI in the assay with DLD-1 colon, in the assay with DMS 114 small cell lung, with KM20L2 colon, in the assay with SNB-78 CNS and in the assay with XF 498 CNS was > 100 µM in each case.
Take `O=C(C(O)c1cn(Cc2ccccc2)c2ccccc12)N1CCCCC1` (stereo not given): the TGI with DLD-1 colon was > 100 µM; with DMS 114 small cell lung it was > 100 µM; in the assay with KM20L2 colon, > 100 µM; with SNB-78 CNS, > 10 µM; in the assay with XF 498 CNS it was > 100 µM.
As to `CCCC(=O)c1c(NOC2OC(COC(C)=O)C(OC(C)=O)C(OC(C)=O)C2OC(C)=O)nc(OC)n(C)c1=O` (stereo not given), the TGI in the assay on DLD-1 colon, with DMS 114 small cell lung, in the assay on KM20L2 colon, in the assay on SNB-78 CNS and in the assay with XF 498 CNS was > 100 µM throughout.
With `COC(=O)c1c(-c2ccccc2)cc2c3cc(-c4ccccc4)c(C(=O)OC)n3c3ccccc3n12`, the TGI in the assay with DLD-1 colon, in the assay on DMS 114 small cell lung, in the assay on KM20L2 colon, in the assay on SNB-78 CNS and with XF 498 CNS was > 100 µM each time.
As to `Cc1cc2nc3c(C(OC4OC(CO)C(O)C(O)C4O)C(O)CO)nn(-c4ccccc4)c3nc2cc1C` (stereo not given), the TGI in the assay with DLD-1 colon, in the assay on DMS 114 small cell lung, with KM20L2 colon, in the assay on SNB-78 CNS and in the assay on XF 498 CNS was > 100 µM each time.
Regarding `CCOc1ccccc1NC(=O)/C=C1\NC(=O)CS1`, the TGI with DLD-1 colon, in the assay with DMS 114 small cell lung, in the assay on KM20L2 colon, in the assay with SNB-78 CNS and in the assay with XF 498 CNS was > 100 µM each time.
On to `C=CCc1cc2cccc(OC)c2oc1=O`, for which the TGI was > 100 µM in the assay on DLD-1 colon; > 100 µM in the assay on DMS 114 small cell lung; > 100 µM with KM20L2 colon; > 100 µM in the assay with SNB-78 CNS; 53.5 µM with XF 498 CNS.
`COP1(=O)CC2C(Cl)(Cl)C2(C)C1` (stereo not given): the TGI in the assay on DLD-1 colon, with DMS 114 small cell lung, in the assay on KM20L2 colon, in the assay on SNB-78 CNS and with XF 498 CNS was > 100 µM each time.
Consider `COc1ccc(-c2c(C3=NCCN3)nnn2-c2ccccc2)cc1`, for which the TGI in the assay with DLD-1 colon, with DMS 114 small cell lung, in the assay on KM20L2 colon, in the assay on SNB-78 CNS and in the assay on XF 498 CNS was > 100 µM each time.
Consider `CC(=O)N/C(=C\c1ccc(/C=C(\NC(C)=O)c2nc3ccc(Cl)cc3[nH]2)cc1)c1nc2ccccc2[nH]1`, for which the TGI in the assay on DLD-1 colon, in the assay on DMS 114 small cell lung, in the assay with KM20L2 colon, with SNB-78 CNS and in the assay with XF 498 CNS was > 100 µM in each case.
With `O=C1C(Br)=C[C@H]2C3C=CC(Br)(C3=O)[C@@H]12` (stereo not given in full), the TGI in the assay on DLD-1 colon is 20.5 µM; in the assay on DMS 114 small cell lung, 28.3 µM; with KM20L2 colon it was 18.2 µM; in the assay with SNB-78 CNS, > 100 µM; with XF 498 CNS it was 31.2 µM.
Taken in the same sequence, the figures for `Cc1cc2nc3c(=O)n(C)c(=O)nc-3n(-c3ccc(Cl)cc3)c2cc1C` were 42.1 µM, 13.7 µM, 26.1 µM, 45.9 µM and 7.14 µM.
Taken in the same sequence, the figures for `O=C(Nc1ccccc1)c1ccc(Cl)c([N+](=O)[O-])c1` were > 100 µM, 33.2 µM, 47.5 µM, 83.9 µM and 43.4 µM.
Taken in the same sequence, the figures for `CC(=O)O[C@H]1C(N(C)C(=O)c2ccccc2)CC[C@]2(C)C3CC[C@@]4(C)C(CC(O)[C@@H]4C(C)N(C)C)[C@@H]3CCC12` (stereo not given in full) were > 100 µM, > 100 µM, > 100 µM, > 100 µM and > 100 µM.
Regarding `Cc1nc(N)sc1C(=O)/C=C/c1ccc(/C=C/C(=O)c2sc(NC(=O)CCCCCCCCC(=O)Nc3nc(C)c(C(=O)/C=C/c4ccc(/C=C/C(=O)c5sc(N)nc5C)cc4)s3)nc2C)cc1`, the TGI in the assay on DLD-1 colon, in the assay with DMS 114 small cell lung, in the assay on KM20L2 colon, in the assay with SNB-78 CNS and in the assay on XF 498 CNS was > 100 µM each time.
Consider `CCN(CC)CCC1CC/C(=C\c2ccc(OC)cc2)C1=O` (stereo not given), for which the TGI is > 100 µM in the assay with DLD-1 colon; > 100 µM with DMS 114 small cell lung; 78.3 µM in the assay on KM20L2 colon; > 100 µM in the assay with SNB-78 CNS; > 100 µM with XF 498 CNS.

For the origin of these results see PubChem BioAssay (NCI).
